Laboratory results from patent US9695164B2, “Crystalline forms of pyrroloquinoline quinone disodium salt” (Zhucheng Haotian Pharm Co., Ltd., priority 2012, dated 2017).
Entries after “also recorded” stand apart in the source; their conditions may differ. Where a name gives a salt, the structure may show the parent alone. One block for each molecule: values may come before it.

Experiments:
Format in all cases: physicochemical
[1] = Approximate solubility of PQQ disodium salt in various solvents by gravimetric analysis; details: for Solubility @ 25: 25° C.; for Solubility @ 50: 50° C.
Method: Before preparation of the crystals, conventional methods may be employed to measure the solubility of the PQQ disodium salt in different solvents, and subsequently appropriate solvent(s) may be selected to prepare the crystals of the invention. For example, the following method may be used to measure the solubility of the PQQ disodium salt in various solvents:
(1) At 25° C. and 50° C. respectively, about 25 mg PQQ disodium salt is stirred in 1 ml solvent to equilibrium for at least 24 h, and subsequently the solution is filtered, wherein the solvent in the liquid part is volatized under vacuum completely. The approximate solubility of the raw material in the solvent is determined by gravimetric analysis.
Gravimetric analysis: a volume (generally 0.5 mL) of the filtrate is weighed accurately and placed in a vessel which has already been dried and weighed, wherein the weight of the vessel is indicated as Mhollow. Subsequently, the total weight of the vessel and the filtrate is measured and indicated as M0. Then, the weight of the filtrate is M0−Mhollow. After the solvent is volatized completely under vacuum, the total weight is measured accurately again (indicated as M1). Then, the mass of the precipitated solid is M1−Mhollow, and the mass of the solvent is M0−M1. As such, the approximate solubility of the raw material in this solvent is: X(g)=[(M1−Mhollow)/(M0−M1)]×100(g)

[2] = Hygroscopic analysis (DVS); details: 25° C.; for moisture absorption / hygroscopicity compared among crystal forms (overlay of DVS graphs) / hygroscopicity (in words): disodium salt; for hygroscopicity compared among crystal forms (overlay of DVS graphs): at 80% RH; for variation of hygroscopicity: conventional storage environment of 40-80 RH
Method: 4. Hygroscopic Analysis As indicated by DVS (FIG. 4), crystalline Form A absorbs 1.6% of moisture at 40% RH, 2.3% at 65% RH, and 2.8% at 80% RH. […] Instrument model: SMS DVS Intrinsic, 0-95% RH, Temperature: 25° C. As described above, crystal E was prepared according to Example 1 in patent literature 1. The hygroscopic analysis graph of crystal E (shown in FIG. 21) was obtained using the DVS test method and conditions used in the foregoing examples, and its hygroscopic property was compared with those of crystals A and B according to the invention (the results are shown in FIG. 22).

[3] = Solvent content (thermogravimetric analysis, Table 3); details: disodium salt
Method: 2. Thermogravimetric Analysis
(the theoretical weight loss of a water molecule is 4.6%). It is possibly a hydrate. The peak temperature of decomposition is 312.5° C.
Instrument model: Netzsch TG 209F3
Temperature range: 30-400° C.
Protection gas: 15 mL/min

[4] = Crystal form stability (Table 3); details: disodium salt
[5] = solvent acetonitrile:methyl isobutyl ketone (1.1)
[6] = solvent acetonitrile:methyl tert-butyl ether (1:1), first line (r31)
[7] = solvent acetonitrile:methyl tert-butyl ether (1:1), second line (r33)
[8] = solvent acetonitrile:toluene (1:1)
[9] = solvent acetonitrile:water (1:1)
[10] = solvent methyl tert-butyl ether
[11] = solvent tetrahydrofuran:water (1:1)

Solvent content (%) [3]: 12.2%
Crystal form stability [4]: Stable
moisture absorption ([2]; 40% RH): 7.3%
Structure (SMILES): O=C(O)c1cc(C(=O)O)c2c(n1)C(=O)C(=O)c1cc(C(=O)O)[nH]c1-2 [crystalline Form B, pyrroloquinoline quinone disodium salt]
hygroscopicity compared among crystal forms (overlay of DVS graphs) [2]: medium hygroscopicity; also recorded: relatively large hygroscopicity

Solvent content (%) [3]: 11.4%
moisture absorption ([2]; 40% RH): 7.8%
hygroscopicity compared among crystal forms (overlay of DVS graphs) [2]: largest hygroscopicity
hygroscopicity (in words) [2]: highly hygroscopic
Structure (SMILES): O=C(O)c1cc(C(=O)O)c2c(n1)C(=O)C(=O)c1cc(C(=O)O)[nH]c1-2 [crystalline Form C, pyrroloquinoline quinone disodium salt]

The remaining lines, values behind:

Structure (SMILES): O=C(O)c1cc(C(=O)O)c2c(n1)C(=O)C(=O)c1cc(C(=O)O)[nH]c1-2 [PQQ disodium salt, pyrroloquinoline quinone disodium salt]
Solubility @ 25 ([1]; solvent acetone:water (1:1)): 0.53 g/100 g
Solubility @ 50 ([1]; solvent acetone:water (1:1)): 1.36 g/100 g
Solubility @ 25 ([1]; solvent acetone): 0.13 g/100 g
Solubility @ 50 ([1]; solvent acetone): 0.05 g/100 g
Solubility @ 25 [1, 5]: 0.09 g/100 g
Solubility @ 50 [1, 5]: 0.04 g/100 g
Solubility @ 25 [1, 6]: 0.10 g/100 g
Solubility @ 50 [1, 6]: 0.04 g/100 g
Solubility @ 25 [1, 7]: 0.03 g/100 g
Solubility @ 50 [1, 7]: 0.02 g/100 g
Solubility @ 25 [1, 8]: 0.04 g/100 g
Solubility @ 50 [1, 8]: 0.00 g/100 g
Solubility @ 25 [1, 9]: 0.22 g/100 g
Solubility @ 50 [1, 9]: 0.14 g/100 g
Solubility @ 25 ([1]; solvent acetonitrile): 0.01 g/100 g
Solubility @ 50 ([1]; solvent acetonitrile): 0.05 g/100 g
Solubility @ 25 ([1]; solvent chloroform): 0.02 g/100 g
Solubility @ 50 ([1]; solvent chloroform): 0.03 g/100 g
Solubility @ 25 ([1]; solvent dichloromethane): 0.02 g/100 g
Solubility @ 50 ([1]; solvent dichloromethane): 0.04 g/100 g
Solubility @ 25 ([1]; solvent ethanol:water (1:1)): 0.10 g/100 g
Solubility @ 50 ([1]; solvent ethanol:water (1:1)): 0.10 g/100 g
Solubility @ 25 ([1]; solvent ethanol): 0.08 g/100 g
Solubility @ 50 ([1]; solvent ethanol): 0.11 g/100 g
Solubility @ 25 ([1]; solvent ethyl acetate): 0.11 g/100 g
Solubility @ 50 ([1]; solvent ethyl acetate): 0.09 g/100 g
Solubility @ 25 ([1]; solvent ethyl ether): 0.06 g/100 g
Solubility @ 50 ([1]; solvent ethyl ether): 0.01 g/100 g
Solubility @ 25 ([1]; solvent heptane): 0.02 g/100 g
Solubility @ 50 ([1]; solvent heptane): 0.11 g/100 g
Solubility @ 25 ([1]; solvent hexane): 0.06 g/100 g
Solubility @ 50 ([1]; solvent hexane): 0.02 g/100 g
Solubility @ 25 ([1]; solvent isopentanol): 0.02 g/100 g
Solubility @ 50 ([1]; solvent isopentanol): 0.00 g/100 g
Solubility @ 25 ([1]; solvent isopropanol): 0.09 g/100 g
Solubility @ 50 ([1]; solvent isopropanol): 0.08 g/100 g
Solubility @ 25 ([1]; solvent isopropyl acetate): 0.36 g/100 g
Solubility @ 50 ([1]; solvent isopropyl acetate): 0.03 g/100 g
Solubility @ 25 ([1]; solvent methanol:water (1:1)): 0.15 g/100 g
Solubility @ 50 ([1]; solvent methanol:water (1:1)): 0.13 g/100 g
Solubility @ 25 ([1]; solvent methanol): 0.09 g/100 g
Solubility @ 50 ([1]; solvent methanol): 0.11 g/100 g
Solubility @ 25 ([1]; solvent methyl ethyl ketone): 0.16 g/100 g
Solubility @ 50 ([1]; solvent methyl ethyl ketone): 0.06 g/100 g
Solubility @ 25 ([1]; solvent methyl isobutyl ketone): 0.05 g/100 g
Solubility @ 50 ([1]; solvent methyl isobutyl ketone): 0.07 g/100 g
Solubility @ 25 [1, 10]: 0.05 g/100 g
Solubility @ 50 [1, 10]: 0.03 g/100 g
Solubility @ 25 ([1]; solvent nitromethane): 0.01 g/100 g
Solubility @ 50 ([1]; solvent nitromethane): 0.02 g/100 g
Solubility @ 25 [1, 11]: 0.24 g/100 g
Solubility @ 50 [1, 11]: 0.29 g/100 g
Solubility @ 25 ([1]; solvent tetrahydrofuran): 0.15 g/100 g
Solubility @ 50 ([1]; solvent tetrahydrofuran): 0.24 g/100 g
Solubility @ 25 ([1]; solvent toluene): 0.02 g/100 g
Solubility @ 50 ([1]; solvent toluene): 0.05 g/100 g
Solubility @ 25 ([1]; solvent water): 0.37 g/100 g
Solubility @ 50 ([1]; solvent water): 0.89 g/100 g

Structure (SMILES): O=C(O)c1cc(C(=O)O)c2c(n1)C(=O)C(=O)c1cc(C(=O)O)[nH]c1-2 [crystal E, pyrroloquinoline quinone disodium salt]
moisture absorption ([2]; 40% RH): 11.8%
moisture absorption ([2]; 65% RH): 13.0%
moisture absorption ([2]; 80% RH): 13.6%
hygroscopicity compared among crystal forms (overlay of DVS graphs) [2]: largest hygroscopicity
variation of hygroscopicity [2]: less than 2%
hygroscopicity (in words) [2]: rather hygroscopic; also recorded: slightly hygroscopic

Structure (SMILES): O=C(O)c1cc(C(=O)O)c2c(n1)C(=O)C(=O)c1cc(C(=O)O)[nH]c1-2 [crystalline Form A, pyrroloquinoline quinone disodium salt]
Solvent content (%) [3]: 7.4%
Crystal form stability [4]: Stable
moisture absorption ([2]; 40% RH): 1.6%
hygroscopicity compared among crystal forms (overlay of DVS graphs) [2]: smallest hygroscopicity
variation of hygroscopicity [2]: less than 2%
hygroscopicity (in words) [2]: only slightly hygroscopic
